Values after ≈ are worked out from the molar mass of the structure shown. “Also recorded” adds a separate entry of the source.
Legend:
[1] = system: Gram negative bacteria; test: Antimicrobial action, Gram negative bacteria (summary); assay type: cell-based; conditions: summary in words
From the text: (§1) (1) Antimicrobial properties:

[2] = system: Sarcoma-180; test: Effect on Sarcoma-180 in mice; assay type: in vivo, mice (ICR, male, 6 weeks age)
From the text: Sarcome-180 (1×10^5 cells) is inoculated intra peritoneally in mice (ICR, male, 6 weeks age), administered the drug and the number of survival dates is observed.

[3] = system: Gram positive bacteria; test: Antibacterial action, Gram positive bacteria (summary); assay type: cell-based; conditions: summary in words
From the text: as §1

[4] = Stability in heating; assay type: physicochemical; conditions: vacuum concentration preferably controlled below 60° C.
[5] = system: Candida albicans; test: Antimicrobial properties (MIC); assay type: cell-based
From the text: as §1

[6] = system: Pseudomonas aeruginosa P-3; test: Antimicrobial properties (MIC); assay type: cell-based
From the text: as §1

[7] = system: Escherichia coli NIHJ; test: Antimicrobial properties (MIC); assay type: cell-based
From the text: as §1

[8] = system: Klebsiella pneumonia PCI 602; test: Antimicrobial properties (MIC); assay type: cell-based
From the text: as §1

[9] = system: Trichophyton ferrugineum; test: Antimicrobial properties (MIC); assay type: cell-based
From the text: as §1

[10] = system: Staphylococcus aureus FDA 209P; test: Antimicrobial properties (MIC); assay type: cell-based
From the text: as §1

[11] = system: Shigella sonnai; test: Antimicrobial properties (MIC); assay type: cell-based
From the text: as §1

[12] = system: Salmonella typhimurium; test: Antimicrobial properties (MIC); assay type: cell-based
From the text: as §1

[13] = system: Aspergillus nigar; test: Antimicrobial properties (MIC); assay type: cell-based
From the text: as §1

[14] = system: Saccharomyces sake; test: Antimicrobial properties (MIC); assay type: cell-based
From the text: as §1

[15] = system: Sarcina lutea PCI 1001; test: Antimicrobial properties (MIC); assay type: cell-based
From the text: as §1

[16] = system: Bacillus subtilis PCI 219; test: Antimicrobial properties (MIC); assay type: cell-based
From the text: as §1

[17] = system: Ehrlich ascites carcinoma; test: Effect on Ehrlich ascites carcinoma in mice; assay type: in vivo, mice (ddY, male, 6 weeks age)
Description: Ehrlich ascites carcinoma, 2×10^6 cells, is inoculated into mice (ddY, male, 6 weeks age) intra peritoneally, administered awamycin as shown in the table, number of survival dates is observed.
Administered date is designates as 0th day at tumor inoculation date. Number of survival dates is shown as mean value in 4-5 mice in one group. Increased life span is calculated according to the following equation. [formula]

[18] = Solubility; assay type: physicochemical
[19] = system: yeast and fungi; test: Antimicrobial action, yeast and fungi (summary); assay type: cell-based; conditions: summary in words
From the text: as §1

[20] = system: Pyricularia oryzae; assay type: cell-based

Which “action against Gram negative bacteria” value [1] does the source give for `COC(=O)C1C(O)C(C)C(O)C(C)/C=C(/C)C(=O)c2c(OC)c(C)c(O)c3c2C(=O)C(SC)=C(NC(=O)/C(C)=C\C=C\C(C)C(O)C(C)C1O)C3=O` (stereo not shown) [awamycin] here?
The value was “no action”.

And the Increased life span ([2]; 0.75 mg/kg/day, administering day 1-9)?
Its Increased life span is 64%.

And the “Number of survival dates (mean value)” value ([2]; 0.75 mg/kg/day, administering day 1-9, control 14)?
Its value is 23.

What about the Increased life span ([2]; 1.5 mg/kg/day, administering day 1-9) of the same compound?
The Increased life span was 200%.

What about the “Number of survival dates (mean value)” value ([2]; 1.5 mg/kg/day, administering day 1-9, control 14) of the same compound?
Its value is 42.

And the Increased life span ([2]; 3.1 mg/kg/day, administering day 1-9)?
Its Increased life span is greater than 329%.

What about the “Number of survival dates (mean value)” value ([2]; 3.1 mg/kg/day, administering day 1-9, control 14) of the same compound?
The value was greater than 60.

And the Increased life span ([2]; 6.3 mg/kg/day, administering day 1-9)?
The Increased life span was 186%.

What about the “Number of survival dates (mean value)” value ([2]; 6.3 mg/kg/day, administering day 1-9, control 14) of the same compound?
Its value is 40.

What about the Increased life span ([2]; 25 mg/kg/day, administering day 0, 1) of the same compound?
Its Increased life span is 100%.

And the “Number of survival dates (mean value)” value ([2]; 25 mg/kg/day, administering day 0, 1,, control 12)?
Its value is 24.

And the “antitumor activity / growth inhibitory activity” value ([2]; Sarcoma-180, in words)?
Its value is “has antitumor activity; also recorded: exhibits growth inhibitory activity”.

What about the “antibacterial action against some Gram positive bacteria” value [3] of the same compound?
The value was “shows antibacterial action against some of Gram positive bacteria; also recorded: active against Gram positive bacteria”.

What about the Stability in heating [4] of the same compound?
The Stability in heating was “stable in heating”.

And the MIC [5]?
Its MIC is greater than 100 µg/mL.

What about the MIC [6] of the same compound?
Its MIC is greater than 100 µg/mL.

And the MIC [7]?
Its MIC is greater than 100 µg/mL.

What about the MIC [8] of the same compound?
The MIC was greater than 100 µg/mL.

And the MIC [9]?
The MIC was greater than 100 µg/mL.

What about the MIC [10] of the same compound?
The MIC was 0.8 µg/mL (≈ 1.08 µM).

And the MIC [11]?
Its MIC is greater than 100 µg/mL.

What about the MIC [12] of the same compound?
Its MIC is greater than 100 µg/mL.

And the MIC [13]?
The MIC was greater than 100 µg/mL.

And the MIC [14]?
Its MIC is greater than 100 µg/mL.

And the MIC [15]?
Its MIC is 0.05 µg/mL (≈ 0.0672 µM).

What about the MIC [16] of the same compound?
The MIC was 0.1 µg/mL (≈ 0.134 µM).

And the Increased life span ([17]; 6.3 mg/kg/day, administering date 1-9)?
Its Increased life span is 73%.

What about the “Number of survival date (median)” value ([17]; 6.3 mg/kg/day, administering date 1-9, control 22) of the same compound?
Its value is 38.

And the Increased life span ([17]; 25 mg/kg/day, administering date 0, 1)?
Its Increased life span is 100%.

And the “Number of survival date (median)” value ([17]; 25 mg/kg/day, administering date 0, 1,, control 20)?
Its value is 40.

And the “antitumor activity / growth inhibitory activity” value ([17]; Ehrlich ascites carcinoma, in words)?
Its value is “has antitumor activity; also recorded: exhibits growth inhibitory activity”.

What about the Solubility ([18]; alcohols (methanol, ethanol), chlorinated methanes, ketones, esters, benzene, toluene, dimethylformamide, dimethyl sulfoxide) of the same compound?
Its Solubility is “soluble”.

And the Solubility ([18]; diethyl ether)?
The Solubility was “slightly soluble”.

And the Solubility ([18]; hexane and petroleum ether)?
Its Solubility is “insoluble”.

And the Solubility ([18]; water)?
Its Solubility is “slightly soluble”.

What about the “action against yeast and fungi” value [19] of the same compound?
The value was “no action”.

What about the MIC [20] of the same compound?
Its MIC is greater than 100 µg/mL.
